SMILES | CH4 permeability | CO2 permeability | H2 permeability | N2 permeability | O2 permeability
*/C(C)=C(/*)[Si](C)(C)CC (repeat unit) | 1200 Barrer | 4600 Barrer | 1930 Barrer | 490 Barrer | 970 Barrer
*C(=C(*)c1ccc([Si](c2ccccc2)(c2ccccc2)c2ccccc2)cc1)c1ccccc1 (repeat unit) | 5.58 Barrer | 78.8 Barrer | 51.7 Barrer | 2.78 Barrer | 12.1 Barrer
*C(=C(*)c1ccc2c(c1)C(C)(C)CC2(C)C)c1cc(F)cc(F)c1 (repeat unit) | 29100 Barrer | 36100 Barrer | 28500 Barrer | 13100 Barrer | 15200 Barrer
*Oc1ccc(-c2ccc(Oc3ccc(S(=O)(=O)c4ccc(*)cc4)cc3)cc2)cc1 (repeat unit) | 0.25 Barrer | 5.6 Barrer | 28 Barrer | 0.24 Barrer | 1.3 Barrer
*Oc1ccc(C(=O)c2ccc(-c3ccc(C(=O)c4ccc(Oc5ccc(S(=O)(=O)c6ccc(*)cc6)cc5)cc4)cc3)cc2)cc1 (repeat unit) | 0.12 Barrer | 3.27 Barrer | 8.38 Barrer | 0.11 Barrer | 0.64 Barrer
*Oc1ccc(C(=O)c2ccc(Oc3c(C)cc(-c4cc(C)c(*)c(C)c4)cc3C)cc2)cc1 (repeat unit) | 1.02 Barrer | 19.4 Barrer | – | 0.971 Barrer | 4.76 Barrer
*Oc1ccc(C(C)(C)c2ccc(OC(=O)c3cc(C(*)=O)cc(C(C)(C)C)c3)c(C(C)C)c2)cc1C(C)C (repeat unit) | 1.43 Barrer | 16.1 Barrer | 41.4 Barrer | 1.08 Barrer | 5.03 Barrer
*Oc1ccc(C(C)(C)c2ccc(OC(=O)c3cccc(C(*)=O)c3)cc2)cc1 (repeat unit) | 0.269 Barrer | 5.6 Barrer | – | 0.272 Barrer | 1.45 Barrer
*Oc1ccc(C(C)(C)c2ccc(OC(=O)c3cccc(C(=O)Oc4cc(-c5cc(*)cc6ccccc56)c5ccccc5c4)c3)cc2)cc1 (repeat unit) | 0.148 Barrer | 4 Barrer | – | 0.139 Barrer | 0.93 Barrer
*Oc1ccc(C(C)(C)c2ccc(OCCC(*)O)cc2)cc1 (repeat unit) | 0.02 Barrer | 0.5 Barrer | – | 0.019 Barrer | 0.09 Barrer
*Oc1ccc(C(C)(C)c2ccc(Oc3ccc(S(=O)(=O)c4ccc(*)c5ccccc45)cc3)cc2)cc1 (repeat unit) | 0.08 Barrer | 4.7 Barrer | – | 0.15 Barrer | 1.2 Barrer
*Oc1ccc(C(C)(C)c2ccc(Oc3ccc(S(=O)(=O)c4ccc(*)cc4)cc3)cc2)cc1 (repeat unit) | 0.25 Barrer | 5.6 Barrer | 14 Barrer | 0.25 Barrer | 1.4 Barrer
*Oc1ccc(C(C)(C)c2cccc(C(C)(C)c3ccc(Oc4ccc(S(=O)(=O)c5ccc(*)cc5)cc4)cc3)c2)cc1 (repeat unit) | 0.111 Barrer | 2.8 Barrer | 10.6 Barrer | 0.11 Barrer | 0.69 Barrer
*Oc1ccc(C2(c3ccc(Oc4ccc(S(=O)(=O)c5ccc(*)cc5)cc4)c(C)c3)OC(=O)c3ccccc32)cc1C (repeat unit) | 0.0727 Barrer | 3.12 Barrer | 10.8 Barrer | 0.11 Barrer | 0.868 Barrer
*Oc1ccc(C23CC4CC(C2)CC(c2ccc(Oc5ccc(S(=O)(=O)c6ccc(*)cc6)cc5)cc2)(C4)C3)cc1 (repeat unit) | 0.396 Barrer | 9.5 Barrer | 27.8 Barrer | 0.455 Barrer | 2.55 Barrer
*Oc1ccc(Cc2ccc(Oc3c(F)c(F)c(COC(C4CCCC(C(OCc5c(F)c(F)c(*)c(F)c5F)(C(F)(F)F)C(F)(F)F)C4)(C(F)(F)F)C(F)(F)F)c(F)c3F)cc2)cc1 (repeat unit) | 0.33 Barrer | 7.6 Barrer | 18 Barrer | 0.55 Barrer | 2.3 Barrer
*Oc1ccc(N2C(=O)CCC23CCC(=O)N3c2ccc(Oc3c(F)c(F)c(COC(C4CCCC(C(OCc5c(F)c(F)c(*)c(F)c5F)(C(F)(F)F)C(F)(F)F)C4)(C(F)(F)F)C(F)(F)F)c(F)c3F)cc2)cc1 (repeat unit) | 0.25 Barrer | 7.1 Barrer | 21 Barrer | 0.46 Barrer | 2.2 Barrer
*Oc1ccc(S(=O)(=O)c2ccc(Oc3c(C)cc(Cc4cc(C)c(*)c(C)c4)cc3C)cc2)cc1 (repeat unit) | 0.577 Barrer | 15 Barrer | 34.5 Barrer | 0.611 Barrer | 3.3 Barrer
*Oc1ccc(S(=O)(=O)c2ccc(Oc3ccc(C(C)(C)c4ccc(*)cc4)cc3)cc2)cc1 (repeat unit) | 0.258 Barrer | 5.6 Barrer | 14 Barrer | 0.249 Barrer | 1.4 Barrer
*Oc1ccc(S(=O)(=O)c2ccc(Oc3ccc(C4(c5ccc(*)c(C)c5)CCCCC4)cc3C)cc2)cc1 (repeat unit) | 0.0393 Barrer | 1.4 Barrer | – | 0.0569 Barrer | 0.41 Barrer
*Oc1ccc(S(=O)(=O)c2ccc(Oc3ccc(Cc4ccc(*)cc4)cc3)cc2)cc1 (repeat unit) | 0.188 Barrer | 4.5 Barrer | – | 0.2 Barrer | 1.1 Barrer
*Oc1ccc(S(=O)(=O)c2ccc(Oc3ccc(Oc4ccc(*)cc4)cc3)cc2)cc1 (repeat unit) | 0.179 Barrer | 4.3 Barrer | – | 0.196 Barrer | 1.1 Barrer
*Oc1ccc(S(=O)(=O)c2ccc(Oc3ccc4cc(*)ccc4c3)cc2)cc1 (repeat unit) | 0.0366 Barrer | 1.5 Barrer | 7.25 Barrer | 0.0507 Barrer | 0.38 Barrer
*Oc1ccc(S(=O)(=O)c2ccc(Oc3ccc4ccc(*)cc4c3)cc2)cc1 (repeat unit) | 0.05 Barrer | 1.8 Barrer | 8.15 Barrer | 0.0735 Barrer | 0.5 Barrer
*Oc1ccc2c(c1)C1(CC2(C)C)CC(C)(C)c2ccc(OC(=O)c3ccc(C(*)=O)cc3)cc21 (repeat unit) | 4.22 Barrer | 55.7 Barrer | – | 2.98 Barrer | 13.4 Barrer
*Sc1ccc(*)cc1 (repeat unit) | 0.066 Barrer | 1.6 Barrer | – | 0.046 Barrer | 0.19 Barrer

Next, values leading:

CH4 permeability | CO2 permeability | H2 permeability | N2 permeability | O2 permeability | SMILES
0.21 Barrer | 6.04 Barrer | – | 0.325 Barrer | 1.85 Barrer | *Oc1ccc(C(=O)c2ccc(Oc3ccc(C(c4ccc(*)cc4)(C(F)(F)F)C(F)(F)F)cc3)cc2)c2ccccc12 (repeat unit)
0.087 Barrer | 3.12 Barrer | – | 0.146 Barrer | 0.99 Barrer | *Oc1ccc(C(=O)c2ccccc2-c2ccccc2C(=O)c2ccc(Oc3ccc(C(c4ccc(*)cc4)(C(F)(F)F)C(F)(F)F)cc3)cc2)cc1 (repeat unit)
0.4 Barrer | 8 Barrer | 27.1 Barrer | 0.393 Barrer | 2.37 Barrer | *Oc1ccc(C(C)(C)c2ccc(OC(=O)c3cc(C(*)=O)cc(C(C)(C)C)c3)c(C)c2)cc1C (repeat unit)
0.0459 Barrer | 1.24 Barrer | 7.79 Barrer | 0.0628 Barrer | 0.4 Barrer | *Oc1ccc(C(C)(C)c2ccc(OC(=O)c3cccc(C(*)=O)c3)c(C)c2)cc1C (repeat unit)
3.47 Barrer | 56.9 Barrer | 86.7 Barrer | 3.72 Barrer | 15.7 Barrer | *Oc1ccc(C(c2ccc(OC(=O)c3cc(C(*)=O)cc(C(C)(C)C)c3)cc2)(C(F)(F)F)C(F)(F)F)cc1 (repeat unit)
0.736 Barrer | 16.6 Barrer | 37.3 Barrer | 0.958 Barrer | 4.54 Barrer | *Oc1ccc(C(c2ccc(OC(=O)c3cccc(C(*)=O)c3)cc2)(C(F)(F)F)C(F)(F)F)cc1 (repeat unit)
0.55 Barrer | 12 Barrer | 28 Barrer | 0.9 Barrer | 3.8 Barrer | *Oc1ccc(C(c2ccc(Oc3c(F)c(F)c(COC(C4CCCC(C(OCc5c(F)c(F)c(*)c(F)c5F)(C(F)(F)F)C(F)(F)F)C4)(C(F)(F)F)C(F)(F)F)c(F)c3F)cc2)(C(F)(F)F)C(F)(F)F)cc1 (repeat unit)
0.477 Barrer | 11.5 Barrer | 31.4 Barrer | 0.76 Barrer | 3.7 Barrer | *Oc1ccc(C(c2ccc(Oc3ccc(C(=O)c4ccc(C(c5ccc(C(=O)c6ccc(*)cc6)cc5)(C(F)(F)F)C(F)(F)F)cc4)cc3)cc2)(C(F)(F)F)C(F)(F)F)cc1 (repeat unit)
0.944 Barrer | 25.5 Barrer | – | 1.2 Barrer | 6 Barrer | *Oc1ccc(S(=O)(=O)c2ccc(Oc3c(C)cc(-c4cc(C)c(*)c(C)c4C)c(C)c3C)cc2)cc1 (repeat unit)
1.61 Barrer | 72 Barrer | 70.7 Barrer | 4 Barrer | 18 Barrer | *Oc1ccc(S(=O)(=O)c2ccc(Oc3c(C)cc(C(c4cc(C)c(*)c(C)c4)(C(F)(F)F)C(F)(F)F)cc3C)cc2)cc1 (repeat unit)
0.345 Barrer | 8.45 Barrer | 15.1 Barrer | 0.431 Barrer | 2.33 Barrer | *Oc1ccc(S(=O)(=O)c2ccc(Oc3ccc(C(c4ccc(*)cc4)(C(F)(F)F)C(F)(F)F)cc3)cc2)cc1 (repeat unit)
3.2 Barrer | 144 Barrer | 193 Barrer | 5.52 Barrer | 26.4 Barrer | *c1c(C)c(C(=O)O)c(C)c(N2C(=O)c3ccc(C(c4ccc5c(c4)C(=O)N(*)C5=O)(C(F)(F)F)C(F)(F)F)cc3C2=O)c1C (repeat unit)
77 Barrer | 1100 Barrer | 530 Barrer | 47 Barrer | 150 Barrer | *c1c(C)c(C)c(-n2c(=O)c3cc4oc5cc6c(cc5oc4cc3c2=O)C2(CC(C)(C)c3cc4oc5cc7c(=O)n(*)c(=O)c7cc5oc4cc32)CC6(C)C)c(C)c1C (repeat unit)

Source: a polymer gas permeability compilation
